Measurements: patent US20260285850A1, “SUBSTITUTED OXAZOLIDINONES AND IMIDAZOLINONES AS HERBICIDES” (FMC CORPORATION, priority 2023, published 2026)

What was measured:
Assay type in all cases: in vivo
[1] = tested on: barnyardgrass (Echinochloa crus-galli); assay: Test A preemergence soil spray, visual injury rating 0-100; conditions: 10 days, 0 = no effect, 100 = complete control
Outline: (§1)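 Directed preemergence spray onto seeded soil or postemergence spray onto 2-10 cm plants (loam plus sand); compound carried in surfactant-containing non-phytotoxic solvent. Injury rated by eye after 10 d greenhouse growth; 0 = no effect, 100 = complete control.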

[2] = tested on: soybean (Glycine max); assay: as above; conditions: 10 days, 0 = no effect, 100 = complete control
Outline: as §1

[3] = tested on: kochia (Bassia scoparia); assay: as above; conditions: 10 days, 0 = no effect, 100 = complete control
Outline: as §1

[4] = tested on: oat, wild (wild oat, Avena fatua); assay: as above; conditions: 10 days, 0 = no effect, 100 = complete control
Outline: as §1

[5] = tested on: ryegrass, Italian (italian ryegrass, Lolium multiflorum); assay: as above; conditions: 10 days, 0 = no effect, 100 = complete control
Outline: as §1

[6] = tested on: palmer (palmer amaranth, palmer pigweed, Amaranthus palmeri); assay: as above; conditions: 10 days, 0 = no effect, 100 = complete control
Outline: as §1

[7] = tested on: ragweed (common ragweed, Ambrosia artemisiifolia); assay: as above; conditions: 10 days, 0 = no effect, 100 = complete control
Outline: as §1

[8] = tested on: corn (Zea mays); assay: as above; conditions: 10 days, 0 = no effect, 100 = complete control
Outline: as §1

[9] = tested on: green foxtail (Setaria viridis); assay: as above; conditions: 10 days, 0 = no effect, 100 = complete control
Outline: as §1

[10] = tested on: wheat (Triticum aestivum); assay: as above; conditions: 10 days, 0 = no effect, 100 = complete control
Outline: as §1

[11] = tested on: blackgrass (Alopecurus myosuroides); assay: as above; conditions: 10 days, 0 = no effect, 100 = complete control
Outline: as §1

[12] = tested on: barnyardgrass (Echinochloa crus-galli); assay: Test A postemergence application, visual injury rating 0-100; conditions: Postemergence, 10 days, 0 is no effect, 100 is complete control
Outline: as §1

[13] = tested on: soybean (Glycine max); assay: as above; conditions: Postemergence, 10 days, 0 is no effect, 100 is complete control
Outline: as §1

[14] = tested on: kochia (Bassia scoparia); assay: as above; conditions: Postemergence, 10 days, 0 is no effect, 100 is complete control
Outline: as §1

[15] = tested on: oat, wild (wild oat, Avena fatua); assay: as above; conditions: Postemergence, 10 days, 0 is no effect, 100 is complete control
Outline: as §1

[16] = tested on: ryegrass, Italian (italian ryegrass, Lolium multiflorum); assay: as above; conditions: Postemergence, 10 days, 0 is no effect, 100 is complete control
Outline: as §1

[17] = tested on: palmer (palmer amaranth, palmer pigweed, Amaranthus palmeri); assay: as above; conditions: Postemergence, 10 days, 0 is no effect, 100 is complete control
Outline: as §1

[18] = tested on: ragweed (common ragweed, Ambrosia artemisiifolia); assay: as above; conditions: Postemergence, 10 days, 0 is no effect, 100 is complete control
Outline: as §1

[19] = tested on: galium (catchweed bedstraw, Galium aparine); assay: as above; conditions: Postemergence, 10 days, 0 is no effect, 100 is complete control
Outline: as §1

[20] = tested on: horseweed (Erigeron canadensis); assay: as above; conditions: Postemergence, 10 days, 0 is no effect, 100 is complete control
Outline: as §1

[21] = tested on: corn (Zea mays); assay: as above; conditions: Postemergence, 10 days, 0 is no effect, 100 is complete control
Outline: as §1

[22] = tested on: green foxtail (Setaria viridis); assay: as above; conditions: Postemergence, 10 days, 0 is no effect, 100 is complete control
Outline: as §1

[23] = tested on: wheat (Triticum aestivum); assay: as above; conditions: Postemergence, 10 days, 0 is no effect, 100 is complete control
Outline: as §1

[24] = tested on: blackgrass (Alopecurus myosuroides); assay: as above; conditions: Postemergence, 10 days, 0 is no effect, 100 is complete control
Outline: as §1

[25] = tested on: sedge, umbrella (small-flower umbrella sedge, Cyperus difformis); assay: Test B flooded paddy test, visual plant response rating 0-100; conditions: 250 g ai/ha, Flood, applied to paddy water, evaluated after 13 days
Outline: (§2)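 Plants were grown to the 2-leaf stage, then pots were flooded to 3 cm above the soil and test compounds were applied directly into the paddy water. Water depth was held there throughout; after 13 days in a greenhouse, injury was scored visually against untreated controls.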

[26] = tested on: rice (Oryza sativa); assay: as above; conditions: 250 g ai/ha, Flood, applied to paddy water, evaluated after 13 days
Outline: as §2

[27] = tested on: barnyardgrass (Echinochloa crusgalli); assay: as above; conditions: 250 g ai/ha, Flood, applied to paddy water, evaluated after 13 days
Outline: as §2

[28] = tested on: ducksalad (Heteranthera limosa); assay: as above; conditions: 250 g ai/ha, Flood, applied to paddy water, evaluated after 13 days
Outline: as §2

CSCCOC(=O)C1C=CC(NC(=O)C2(C)CN(c3cc(Cl)cc(Cl)c3)C(=O)O2)C1 (stereo not shown) [Compound 45]
Barnyardgrass plant response rating (0 to 100 scale) ([1]; 125 g ai/ha): 100
Barnyardgrass plant response rating (0 to 100 scale) ([1]; 500 g ai/ha): 100
Soybean plant response rating (0 to 100 scale) ([2]; 125 g ai/ha): 30
Soybean plant response rating (0 to 100 scale) ([2]; 500 g ai/ha): 60
Kochia plant response rating (0 to 100 scale) ([3]; 125 g ai/ha): 20
Kochia plant response rating (0 to 100 scale) ([3]; 500 g ai/ha): 100
Oat, Wild plant response rating (0 to 100 scale) ([4]; 125 g ai/ha): 80
Oat, Wild plant response rating (0 to 100 scale) ([4]; 500 g ai/ha): 90
Ryegrass, Italian plant response rating (0 to 100 scale) ([5]; 125 g ai/ha): 90
Ryegrass, Italian plant response rating (0 to 100 scale) ([5]; 500 g ai/ha): 90
Amaranth, Palmer plant response rating (0 to 100 scale) ([6]; 125 g ai/ha): 100
Amaranth, Palmer plant response rating (0 to 100 scale) ([6]; 500 g ai/ha): 100
Ragweed plant response rating (0 to 100 scale) ([7]; 125 g ai/ha): 20
Ragweed plant response rating (0 to 100 scale) ([7]; 500 g ai/ha): 70
Corn plant response rating (0 to 100 scale) ([8]; 125 g ai/ha): 20
Corn plant response rating (0 to 100 scale) ([8]; 500 g ai/ha): 60
Foxtail, Green plant response rating (0 to 100 scale) ([9]; 125 g ai/ha): 90
Foxtail, Green plant response rating (0 to 100 scale) ([9]; 500 g ai/ha): 100
Wheat plant response rating (0 to 100 scale) ([10]; 125 g ai/ha): 90
Wheat plant response rating (0 to 100 scale) ([10]; 500 g ai/ha): 90
Blackgrass plant response rating (0 to 100 scale) ([11]; 125 g ai/ha): 90
Blackgrass plant response rating (0 to 100 scale) ([11]; 500 g ai/ha): 90
Barnyardgrass plant response rating (0 to 100 scale) ([12]; 125 g ai/ha): 100
Barnyardgrass plant response rating (0 to 100 scale) ([12]; 500 g ai/ha): 100
Soybean plant response rating (0 to 100 scale) ([13]; 125 g ai/ha): 90
Soybean plant response rating (0 to 100 scale) ([13]; 500 g ai/ha): 90
Kochia plant response rating (0 to 100 scale) ([14]; 125 g ai/ha): 80
Kochia plant response rating (0 to 100 scale) ([14]; 500 g ai/ha): 80
Oat, Wild plant response rating (0 to 100 scale) ([15]; 125 g ai/ha): 90
Oat, Wild plant response rating (0 to 100 scale) ([15]; 500 g ai/ha): 90
Ryegrass, Italian plant response rating (0 to 100 scale) ([16]; 125 g ai/ha): 80
Ryegrass, Italian plant response rating (0 to 100 scale) ([16]; 500 g ai/ha): 80
Amaranth, Palmer / Pigweed, Palmer plant response rating (0 to 100 scale) ([17]; 125 g ai/ha): 100
Amaranth, Palmer / Pigweed, Palmer plant response rating (0 to 100 scale) ([17]; 500 g ai/ha): 100
Ragweed plant response rating (0 to 100 scale) ([18]; 125 g ai/ha): 70
Ragweed plant response rating (0 to 100 scale) ([18]; 500 g ai/ha): 80
Galium plant response rating (0 to 100 scale) ([19]; 125 g ai/ha): 70
Galium plant response rating (0 to 100 scale) ([19]; 500 g ai/ha): 70
Horseweed plant response rating (0 to 100 scale) ([20]; 125 g ai/ha): 80
Horseweed plant response rating (0 to 100 scale) ([20]; 500 g ai/ha): 80
Corn plant response rating (0 to 100 scale) ([21]; 125 g ai/ha): 100
Corn plant response rating (0 to 100 scale) ([21]; 500 g ai/ha): 100
Foxtail, Green plant response rating (0 to 100 scale) ([22]; 125 g ai/ha): 80
Foxtail, Green plant response rating (0 to 100 scale) ([22]; 500 g ai/ha): 90
Wheat plant response rating (0 to 100 scale) ([23]; 125 g ai/ha): 90
Wheat plant response rating (0 to 100 scale) ([23]; 500 g ai/ha): 90
Blackgrass plant response rating (0 to 100 scale) ([24]; 125 g ai/ha): 100
Blackgrass plant response rating (0 to 100 scale) ([24]; 500 g ai/ha): 100
Plant response rating, Sedge, Umbrella (0 to 100 scale, 0 is no effect and 100 is complete control) [25]: 100
Plant response rating, Rice (0 to 100 scale, 0 is no effect and 100 is complete control) [26]: 15
Plant response rating, Barnyardgrass (0 to 100 scale, 0 is no effect and 100 is complete control) [27]: 75
Plant response rating, Ducksalad (0 to 100 scale, 0 is no effect and 100 is complete control) [28]: 100
